Measurements from EP1479388A1, “Ready to use gemcitabin solution concentrates” (STADA ARZNEIMITTEL AG, priority 2003, dated 2004).
≈ marks a conversion by molar mass, not a printed value. Counter-ions that a name gives are not always drawn. Like-named read-outs stand apart in the source and are kept apart here.

Key:
[1] = Maximum solubility in 66 Vol.-% ethanol after dissolving at 35-45 °C and cooling, HPLC (Beispiel 4); assay type: physicochemical; settings: dissolved at 35-45 °C 6 h, cooled, 24 h at 19-23 °C
Procedure: Die maximale Löslichkeit von Gemcitabinhydrochlorid wurde unter weiterer Verwendung von 1 N Natronlauge, Wasser für Injektionszwecke und absolutem Ethanol, in als hierfür optimal erkanntem 66 Vol.-%-igem Anteil bei gesteigerten Lösungstemperaturen (35-45 °C, 6 Stunden Rühren) und anschließendem Abkühlen auf Raumtemperatur (19-23 °C) und 24-stündiger Lagerung bei 19-23 °C ermittelt. Hierbei wurde im partikelfreien Überstand der gelagerten Lösungen mittels HPLC ein Gehalt von 95,1 mg/ml Gemcitabin bzw. 108,3 mg/ml Gemcitabinhydrochlorid bestimmt.

[2] = Saturation concentration of gemcitabine in aqueous-ethanolic solutions, HPLC (Beispiel 3); assay type: physicochemical; settings: interpolation (Polynom 6. Grades), ca. 66 Vol.% Ethanolanteil, pH 10 +/-0,5
From the text: Um die Sättigungskonzentration von Gemcitabin in wässrig-ethanolischeh Lösungen zu ermitteln, wurden Gemcitabin-Lösungen mit verschiedenen Volumenanteilen an Ethanol hergestellt und analysiert.
Hierzu wurde Gemcitabinhydrochlorid im Ansatzbehälter vorgelegt, mit einer stöchiometrischen Menge an wässrig gelöstem Alkalisierungsmittel (1 N Natronlauge) versetzt, anschließend mit jeweils 80 % der in Vortests ermittelten erforderlichen Mengen an Wasser für Injektionszwecke als auch mit jeweils erforderlichen Mengen an Ethanol versetzt.
Die im Ansatz enthaltenen Bestandteile wurden anschließend unter 6-stündigem Rühren bei Raumtemperatur (19-23 °C) derart gelöst, dass ein ungelöster Bodensatz an Gemcitabinhydrochlorid im Ansatzbehälter verblieb. Der pH-Wert des Ansatzes wurde potentiometrisch bestimmt und erforderlichenfalls mit 1 N Natronlauge bzw. 1 N Salzsäure auf einen pH-Wert von 10 eingestellt, um mit diesem pH-Wert eine vollständige Umsetzung des Gemcitabinhydrochlorids zur gelösten Gemcitabinbase zu erzielen.
Der Ansatz wurde 24 Stunden bei 19-23 °C gelagert. Der pH-Wert wurde anschließend kontrolliert und nur solche klaren Überstände der Ansätze weiterverarbeitet, deren pH-Werte 10 +/- 0,5 betrugen. Diese wurden dann partikelfrei filtriert und der Gehalt an Gemcitabin per HPLC bestimmt.

[3] = cited from earlier work

Compound	maximale Löslichkeit (Gehalt im partikelfreien Überstand) ([1]; 1440 min)	Maximum der Gemcitabin-Löslichkeit [2] [mg/mL]	solubility at 24 h ([1]; 66 vol% aqueous ethanol, organic solvent or mixture, read-out: maximale Löslichkeit (Gehalt im partikelfreien Überstand)) [mg/mL]	solubility thermodynamic ([2]; 66 vol% aqueous ethanol, pH 10, organic solvent or mixture, read-out: Maximum der Gemcitabin-Löslichkeit) [mg/mL]	Löslichkeit des Gemcitabins in Wasser ([3]; pH-Bereich von 2,7 bis 3,3)	Löslichkeit des Gemcitabins in Wasser ([3]; pH-Wert von 5)	Löslichkeit des Gemcitabins in Wasser ([3]; pH-Wert von 7)	Löslichkeit des Gemcitabins in Wasser ([3]; pH-Wert von 9)
Nc1ccn([C@@H]2O[C@H](CO)[C@@H](O)C2(F)F)c(=O)n1 [Gemcitabinhydrochlorid]	108,3 mg/ml	55	–	–	–	–	–	–
Nc1ccn([C@@H]2O[C@H](CO)[C@@H](O)C2(F)F)c(=O)n1 [Gemcitabin, 2'-Deoxy-2',2'-difluorcytidin]	–	–	95.1 (≈ 361 mM)	50 (≈ 190 mM)	ca. 38 mg/ml	16,0 mg/ml	15,3 mg/ml	15,8 mg/ml
